According to ChEMBL document CHEMBL5465560, “Selectivity Literature for EUbOPEN Chemogenomic Library” (2024):

How the values were obtained:
[1] = target: T1, Serine/threonine-protein kinase BRSK2 (Homo sapiens) (UniProt Q8IWQ3); assay: Selectivity interaction (KinomeScan (DiscoverX)) EUB0000045b BRSK2
T1 sequence (whole entry): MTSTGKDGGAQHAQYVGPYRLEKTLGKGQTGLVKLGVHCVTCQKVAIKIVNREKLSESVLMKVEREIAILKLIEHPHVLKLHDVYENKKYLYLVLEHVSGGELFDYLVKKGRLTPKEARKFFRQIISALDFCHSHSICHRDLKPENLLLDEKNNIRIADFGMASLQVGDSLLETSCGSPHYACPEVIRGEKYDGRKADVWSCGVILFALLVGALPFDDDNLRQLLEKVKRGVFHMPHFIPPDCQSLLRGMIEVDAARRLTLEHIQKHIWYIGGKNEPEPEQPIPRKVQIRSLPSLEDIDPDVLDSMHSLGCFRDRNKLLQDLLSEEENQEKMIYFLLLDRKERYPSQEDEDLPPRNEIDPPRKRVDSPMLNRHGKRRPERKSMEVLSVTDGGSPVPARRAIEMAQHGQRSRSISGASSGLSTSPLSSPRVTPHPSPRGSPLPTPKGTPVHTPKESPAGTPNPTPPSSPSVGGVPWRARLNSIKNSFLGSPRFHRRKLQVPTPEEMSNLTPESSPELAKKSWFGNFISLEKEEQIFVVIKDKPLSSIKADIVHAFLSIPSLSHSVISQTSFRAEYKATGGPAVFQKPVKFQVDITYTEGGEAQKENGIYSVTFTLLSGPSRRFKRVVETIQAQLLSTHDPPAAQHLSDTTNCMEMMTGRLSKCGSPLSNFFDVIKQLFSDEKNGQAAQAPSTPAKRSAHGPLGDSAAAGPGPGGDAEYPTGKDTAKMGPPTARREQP

[2] = target: Phosphatidylinositol 4,5-bisphosphate 3-kinase catalytic subunit gamma isoform (Homo sapiens) (UniProt P48736); assay: Selectivity interaction (Adapta Assay) EUB0001632a PIK3CG; conditions: at 10 µM
Chain of Phosphatidylinositol 4,5-bisphosphate 3-kinase catalytic subunit gamma isoform (Homo sapiens) (P48736 whole entry, looked up, canonical isoform): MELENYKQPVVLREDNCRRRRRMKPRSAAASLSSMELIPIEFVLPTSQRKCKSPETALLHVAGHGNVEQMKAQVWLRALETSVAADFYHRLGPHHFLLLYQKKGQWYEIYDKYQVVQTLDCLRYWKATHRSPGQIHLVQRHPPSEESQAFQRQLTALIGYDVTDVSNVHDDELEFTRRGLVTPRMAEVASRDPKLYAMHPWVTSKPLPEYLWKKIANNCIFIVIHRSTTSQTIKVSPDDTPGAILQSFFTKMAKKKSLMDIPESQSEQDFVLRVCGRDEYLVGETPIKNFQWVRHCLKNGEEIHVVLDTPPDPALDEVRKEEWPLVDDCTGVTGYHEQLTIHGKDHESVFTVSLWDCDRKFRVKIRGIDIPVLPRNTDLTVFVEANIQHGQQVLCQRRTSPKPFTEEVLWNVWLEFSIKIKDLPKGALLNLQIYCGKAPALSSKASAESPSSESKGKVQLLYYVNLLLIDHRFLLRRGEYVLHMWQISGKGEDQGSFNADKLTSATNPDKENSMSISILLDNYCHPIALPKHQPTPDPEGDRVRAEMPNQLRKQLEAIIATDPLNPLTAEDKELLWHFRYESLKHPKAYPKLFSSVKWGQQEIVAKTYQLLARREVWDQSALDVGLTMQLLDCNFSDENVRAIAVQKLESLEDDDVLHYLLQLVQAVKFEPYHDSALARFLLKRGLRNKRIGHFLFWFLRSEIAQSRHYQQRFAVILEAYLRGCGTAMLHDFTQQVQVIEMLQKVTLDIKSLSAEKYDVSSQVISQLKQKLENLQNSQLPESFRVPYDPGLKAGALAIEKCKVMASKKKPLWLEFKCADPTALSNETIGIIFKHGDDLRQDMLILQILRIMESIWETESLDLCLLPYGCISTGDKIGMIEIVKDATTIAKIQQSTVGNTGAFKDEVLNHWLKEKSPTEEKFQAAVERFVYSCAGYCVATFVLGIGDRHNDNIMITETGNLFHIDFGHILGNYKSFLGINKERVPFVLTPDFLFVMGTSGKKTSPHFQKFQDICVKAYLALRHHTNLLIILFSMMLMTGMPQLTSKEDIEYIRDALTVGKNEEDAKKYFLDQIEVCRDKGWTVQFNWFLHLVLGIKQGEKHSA

[3] = target: T2, Protein arginine N-methyltransferase 9 (Homo sapiens) (UniProt Q6P2P2); assay: Selectivity interaction (Methyltransferase screen (radiometric assays, panel of 8 PRMTs, 21 protein lysine methyltransferases, 3 DNA methyltransferases, and one RNA methyltransferase)) EUB0000271b PRMT9
T2 sequence (whole entry): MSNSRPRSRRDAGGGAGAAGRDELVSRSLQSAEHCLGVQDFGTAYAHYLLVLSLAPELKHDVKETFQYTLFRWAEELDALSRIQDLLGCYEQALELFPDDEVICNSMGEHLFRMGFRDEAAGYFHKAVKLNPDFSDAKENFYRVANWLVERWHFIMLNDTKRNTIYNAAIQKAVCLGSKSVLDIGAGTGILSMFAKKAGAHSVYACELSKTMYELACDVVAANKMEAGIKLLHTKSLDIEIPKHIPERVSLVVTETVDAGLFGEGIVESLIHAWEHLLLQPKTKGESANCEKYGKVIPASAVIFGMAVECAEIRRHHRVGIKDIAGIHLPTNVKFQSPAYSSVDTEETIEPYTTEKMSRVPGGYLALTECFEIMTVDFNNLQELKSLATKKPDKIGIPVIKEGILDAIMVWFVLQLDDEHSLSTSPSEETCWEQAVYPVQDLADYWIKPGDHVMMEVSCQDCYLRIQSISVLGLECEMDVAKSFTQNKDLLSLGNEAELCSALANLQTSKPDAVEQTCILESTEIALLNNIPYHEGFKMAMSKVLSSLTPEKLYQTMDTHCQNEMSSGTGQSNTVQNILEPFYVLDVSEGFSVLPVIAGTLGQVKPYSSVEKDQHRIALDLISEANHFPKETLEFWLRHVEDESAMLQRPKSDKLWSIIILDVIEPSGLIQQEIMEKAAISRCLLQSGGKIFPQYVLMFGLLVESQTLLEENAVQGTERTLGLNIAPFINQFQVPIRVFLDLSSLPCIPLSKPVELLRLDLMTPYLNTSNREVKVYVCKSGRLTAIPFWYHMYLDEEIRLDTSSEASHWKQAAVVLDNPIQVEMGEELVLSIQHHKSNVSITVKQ

[4] = target: T3, Serine/threonine-protein kinase TBK1 (Homo sapiens) (UniProt Q9UHD2); assay: Selectivity interaction (KinomeScan (DiscoverX)) EUB0001049a TBK1; conditions: at 1 µM
T3 sequence (whole entry): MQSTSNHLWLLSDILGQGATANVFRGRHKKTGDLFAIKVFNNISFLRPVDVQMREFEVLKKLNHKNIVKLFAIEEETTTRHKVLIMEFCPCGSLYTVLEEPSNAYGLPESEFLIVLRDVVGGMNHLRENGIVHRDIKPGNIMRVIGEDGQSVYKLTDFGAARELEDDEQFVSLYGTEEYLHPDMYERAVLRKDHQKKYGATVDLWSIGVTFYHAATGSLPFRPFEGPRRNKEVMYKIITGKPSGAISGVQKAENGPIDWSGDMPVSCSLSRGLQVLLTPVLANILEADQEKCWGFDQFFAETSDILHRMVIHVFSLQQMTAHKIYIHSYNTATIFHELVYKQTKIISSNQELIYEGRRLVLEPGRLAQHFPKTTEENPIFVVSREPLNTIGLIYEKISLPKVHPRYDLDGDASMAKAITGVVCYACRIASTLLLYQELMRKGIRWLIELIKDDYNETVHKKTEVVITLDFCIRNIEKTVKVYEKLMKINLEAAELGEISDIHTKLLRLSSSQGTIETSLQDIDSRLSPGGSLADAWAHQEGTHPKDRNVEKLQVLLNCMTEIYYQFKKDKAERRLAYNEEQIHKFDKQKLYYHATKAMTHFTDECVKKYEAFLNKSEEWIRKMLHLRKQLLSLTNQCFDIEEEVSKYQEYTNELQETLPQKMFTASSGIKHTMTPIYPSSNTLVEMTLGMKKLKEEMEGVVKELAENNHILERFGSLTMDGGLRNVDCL

[5] = target: T4, Mitogen-activated protein kinase 13 (Homo sapiens) (UniProt O15264); assay: Selectivity interaction (Millipore kinase profiler) EUB0000124b MAPK13; conditions: at 10 µM
T4 sequence (whole entry): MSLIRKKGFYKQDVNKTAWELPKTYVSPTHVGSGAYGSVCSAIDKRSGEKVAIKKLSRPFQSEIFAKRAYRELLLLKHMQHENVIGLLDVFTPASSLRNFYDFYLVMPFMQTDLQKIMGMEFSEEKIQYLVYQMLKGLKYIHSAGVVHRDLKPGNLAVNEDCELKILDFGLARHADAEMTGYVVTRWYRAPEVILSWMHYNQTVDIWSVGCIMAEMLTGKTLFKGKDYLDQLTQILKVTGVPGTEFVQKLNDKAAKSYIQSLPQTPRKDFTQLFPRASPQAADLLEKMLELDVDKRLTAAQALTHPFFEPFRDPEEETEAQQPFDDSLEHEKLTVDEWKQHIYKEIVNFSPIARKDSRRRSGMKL

[6] = target: Serine/threonine-protein kinase B-raf (Homo sapiens) (UniProt P15056); conditions: at 10 µM
Chain of Serine/threonine-protein kinase B-raf (Homo sapiens) (P15056 whole entry): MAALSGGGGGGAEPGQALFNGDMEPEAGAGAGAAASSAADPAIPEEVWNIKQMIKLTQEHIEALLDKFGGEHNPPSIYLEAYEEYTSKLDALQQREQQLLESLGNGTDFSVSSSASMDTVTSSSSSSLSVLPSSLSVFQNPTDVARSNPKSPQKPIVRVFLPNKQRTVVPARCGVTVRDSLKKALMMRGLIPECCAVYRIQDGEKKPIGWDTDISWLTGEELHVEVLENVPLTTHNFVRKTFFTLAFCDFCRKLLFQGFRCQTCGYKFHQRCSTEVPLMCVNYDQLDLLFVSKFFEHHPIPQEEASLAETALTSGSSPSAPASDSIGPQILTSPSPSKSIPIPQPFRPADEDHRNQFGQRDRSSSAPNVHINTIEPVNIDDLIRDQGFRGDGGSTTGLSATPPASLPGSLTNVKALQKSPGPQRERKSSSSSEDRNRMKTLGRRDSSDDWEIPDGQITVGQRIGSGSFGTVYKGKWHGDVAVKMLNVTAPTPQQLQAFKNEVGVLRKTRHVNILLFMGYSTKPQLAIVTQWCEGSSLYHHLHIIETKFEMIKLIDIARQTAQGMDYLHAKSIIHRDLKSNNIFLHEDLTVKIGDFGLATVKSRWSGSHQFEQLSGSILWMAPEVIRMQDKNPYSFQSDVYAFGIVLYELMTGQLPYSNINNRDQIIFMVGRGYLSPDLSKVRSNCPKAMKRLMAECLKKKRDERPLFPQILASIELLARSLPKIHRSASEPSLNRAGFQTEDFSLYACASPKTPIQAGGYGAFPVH

`C=CC(=O)Nc1cc(-n2c(=O)ccc3cnc4ccc(-c5ccc(NS(C)(=O)=O)cc5)cc4c32)ccc1C` was tested, and the % of control ([1]; at 1 µM) was 84% and the % of control ([1]; at 10 µM) was 100%.
`Cn1cc(-n2cnc3c(NCc4nc5cc(Cl)c(Cl)cc5[nH]4)nc(N4CCOCC4)nc32)cn1` gave a % of inhibition [2] of 29.5%.
Work on `Cc1cc(C)cc([C@@H]2c3cc(C)ccc3NC(=O)CN2C(=O)c2ccc(Br)s2)c1` yielded a % of activity ([3]; at 1 µM) of 102% and a % of activity ([3]; at 10 µM) of 103%.
With `COc1cc(Nc2nc(C)cc(-c3cnn4nc(OC)ccc34)n2)cc(C(F)(F)F)c1` the % of control [4] was 80%.
`CC(=O)Nc1cccc(-n2c(=O)n(C3CC3)c(=O)c3c(Nc4ccc(I)cc4F)n(C)c(=O)c(C)c32)c1` showed a % of control [5] of 109%.
`CCN(CC)CCCCNc1ncc2cc(-c3cc(OC)cc(OC)c3)c(NC(=O)NC(C)(C)C)nc2n1` was tested, and the % of control [6] was 100%.
